{
  "source": "paper PMC4728560",
  "about": "(Scientific Reports, 2016)",
  "test_system": "Bcl-xL inhibition of cBid/Bax",
  "experiment": "In vitro reconstitution liposome permeabilization, cBid/Bax with Bcl-xL",
  "assay_type": "biochemical",
  "settings": "ANTS/DPX liposomes, 100 nM Bax, 20 nM cBid, pre-incubation pH 9, 45 min, 37 °C, 5 h, pH 7",
  "text": "This purified assay system measures direct interactions in which full-length untagged Bcl-xL inhibits permeabilization by binding full-length caspase 8 cleaved Bid (cBid) and/or full-length untagged Bax, thereby preventing Bax oligomerization in membranes. […] In these assays liposome permeabilization by activated Bax releases the entrapped fluorophore/quencher pair 8-aminonaphthalene-1,3,6-trisulfonic acid (ANTS)/p-xylene-bispyridinium (DPX), resulting in a measurable increase of fluorescence.\n(A–E) in vitro reconstitution assay on liposome permeabilization. […] The treated Bcl-xL was then added to reactions containing ANTS-DPX liposomes, 100 nM Bax and 20 nM of either cBid (A,B) or cBidmt1(C,D) at pH 7. Liposome permeabilization was quantified by fluorescence after 5h incubation at 37 °C where 100% release was defined as the fluorescence change due to lipid solubilization with 1% Triton X-100. […] Error bars, std. dev. n = 3. […] Cyto c extra-mito: in the supernatant, analysed by Western blot. […]\nFigure 10 A,B) or cBid mt1 (Supplementary Figure 10 C,D) at pH 7 to quantify the activity of Bcl-xL inhibition of liposome permeablization. […]\nthen added to reactions containing ANTS-DPX liposomes, 100nM Bax and 20nM of either c Bid (A, C) or cBid mt1(B, D) at pH 7 and liposome permeabilization was quantified by fluorescence […]",
  "data": [
    {"substance": "TCTP: Translationally Controlled Tumor Protein (TCTP/tpt1), recombinant full-length", "values": [
      {"measurement": "effect on Bcl-xL inhibition of cBid/Bax-mediated liposome permeabilization", "result": "enhanced Bcl-xL inhibition"}
    ]}
  ]
}
